{"source": "paper doi:10.1101/2024.05.17.594634", "about": "“Protein Structure Inspired Drug Discovery” (bioRxiv, 2024)", "key": {"human CD34+ stem cells": {"test_system": "human CD34+ stem cells", "experiment": "Bone marrow stem cell (hematopoietic) colony formation assay", "assay_type": "cell-based", "protocol": "In parallel with measuring growth inhibition of cancer cell growth, we measured effect on human hematopoietic stem cells. Hematopoietic stem cells reside in the bone marrow and are the source of mature cells present in blood.[66] Bone marrow is one of the most sensitive organs in the body to drug toxicity, especially so for anticancer drugs where it can approach 100%.[67–69] Bone marrow toxicity was measured by performing hematopoietic colony formation assays on human CD34+ stem cells. The stem cell nature of this assay permitted assessment of trilineage colony formation: granulocytic (white blood cells), erythrocytic (red blood cells) and megakaryocytic (platelets), measured by the formation of CFU-GM (colony-forming-granulocyte-macrophage), BFU-E (erythroid burst-forming unites) and CFU-GEMM (colony-forming unit-granulocyte, erythrocyte, monocyte, megakaryocyte) colonies, respectively. Two measurements were taken. Total colonies at eight days were measured, thereby matching the eight-day time frame of cancer cell colony formation assays. At fourteen days, individual colonies have differentiated, permitting quantification of each lineage. Human hematopoietic stem cell trilineage colony formation assays were performed as previously described by us.[65] Briefly, human cord blood CD34+ cells (catalog #: 70008.5) were purchased from StemCell Technology Inc., and seeded at 1 × 10^4 cells per 35 mm dish. Cells were cultured in MethoCult™ Express (StemCell Technologies, Inc.) semisolid media, per manufacturer’s instructions, in the presence of compound or vehicle control. At eight days colonies, i.e., groups of ≥ 10 cells, were counted. At fourteen days, individual colonies of BFU-E, CFU-GM and CFU-GEMM were identified based on manufacturers’ morphologic characterization criteria. Assays were run in replicates of N = 2; some were run in replicates of N = 3, as denoted."}, "melanoma cell lines": {"test_system": "melanoma cell lines", "experiment": "NCI-60 cell line screen, melanoma cell lines", "assay_type": "cell-based, human", "details": "10 μM X 48 hours", "protocol": "Above findings support the importance of Dxr2 and FolC2 sites, and of Dxr2-017 and FolC2-001 compounds, respectively. The predicted poses of Dxr2-017 bound to the Dxr2 site and FolC2-001 bound to the FolC2 site are shown (Fig 7). The NCI-60 cell line screen evaluates compound growth inhibition and cell toxicity in a highly standardized manner across 60 different cell lines. Dxr2-017 and FolC2-001 were evaluated in this assay (S5 Fig). NCI-60 screens evaluate compounds at 10 μM X 48 hours. […] Of high interest, in the NCI-60 screen Dxr2-017 had relatively high activity against melanoma cell lines, inducing cell death in 5 cell lines ranging from 25–65%, and inhibiting growth in 4 cell lines ranging from 76–96%. Its impact on cell death represents the most striking relative difference in response across cell lines."}}}
{"smiles": "c1ccc2sc(-c3ccc(CNc4ccc5nnnn5n4)o3)nc2c1", "note": "[Dxr2-017]", "values": [{"measurement": "mean number of colonies, % of control, 14 day", "setting": "human CD34+ stem cells; 40 μM compound, 14 days, mean N=2", "value": "57 % of control"}, {"measurement": "mean number of colonies, % of control, 8 day", "setting": "human CD34+ stem cells; 40 μM compound, total colonies at 8 days, mean N=2", "value": "70 % of control"}, {"measurement": "decrease of BFU-E compared to control", "setting": "human CD34+ stem cells; 40 μM, 14 day", "value": "97.1 ± 4.1", "unit": "%"}, {"measurement": "decrease of CFU-G/M compared to control", "setting": "human CD34+ stem cells; 40 μM, 14 day", "value": "49.8 ± 0.0", "unit": "%"}, {"measurement": "increase of CFU-GEMM compared to control", "setting": "human CD34+ stem cells; 40 μM, 14 day", "value": "16.1 ± 12.0", "unit": "%"}, {"measurement": "inhibition of 14-day total colony formation", "setting": "human CD34+ stem cells; 40 μM, 14 day", "value": "42.6 ± 5.8", "unit": "%"}, {"measurement": "cell death", "setting": "melanoma cell lines; range over 5 melanoma cell lines", "value": "25–65%"}, {"measurement": "inhibition at 10 µM", "setting": "melanoma cell lines; Homo sapiens, range over 4 melanoma cell lines, read-out: growth inhibition", "value": "76 to 96", "unit": "%"}]}
